Experiments:
olfactory receptor OR5K1 = biological target: T1, olfactory receptor OR5K1 (Homo sapiens, UniProt Q8NHB7); assay: Antagonistic activity against OR5K1: inhibition of the receptor response to 2,6-dimethylpyrazine (luciferase assay, HEK293 cells); format: cell-based; settings: 2,6-dimethylpyrazine 1 mM + test substance 300 μM, cytotoxic flavoring agents re-evaluated at 333 μM 2,6-dimethylpyrazine + 100 μM test substance, read-out: Inhibition rate (receptor response-inhibiting rate)
T1 construct: expressed in transfected cells; host or cells: HEK293
T1 sequence (Q8NHB7 1-308): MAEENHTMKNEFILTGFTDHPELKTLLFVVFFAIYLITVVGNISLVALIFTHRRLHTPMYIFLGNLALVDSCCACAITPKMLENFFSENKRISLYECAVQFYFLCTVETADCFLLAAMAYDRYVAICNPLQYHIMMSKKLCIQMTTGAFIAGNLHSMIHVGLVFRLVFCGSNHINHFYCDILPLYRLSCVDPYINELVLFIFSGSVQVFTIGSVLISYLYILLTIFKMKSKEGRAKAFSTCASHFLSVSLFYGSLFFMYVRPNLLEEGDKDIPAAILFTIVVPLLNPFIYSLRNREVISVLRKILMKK
Protocol: The receptor response-inhibiting rate of a test substance was calculated as follows. The receptor activity (X-Y) by stimulation with 2,6-dimethylpyrazine alone was determined by subtracting the luminescence value (Y) in cells to which the receptor was introduced but were not stimulated with 2,6-dimethylpyrazine from the luminescence value (X) derived from firefly luciferase induced by stimulation with 2,6-dimethylpyrazine alone. Similarly, the receptor activity (Z-Y) in the presence of a test substance was determined by subtracting the luminescence value (Y) in cells not stimulated with 2,6-dimethylpyrazine from the luminescence value (Z) stimulated with a mixture of 2,6-dimethylpyrazine and the test substance. The reduction rate of the receptor activity (Z-Y) in the presence of a test substance to the receptor activity (X-Y) by stimulation with 2,6-dimethylpyrazine alone was calculated by the following computation expression: Inhibition rate (%)={1−(Z−Y)/(X−Y)}×100, to determine the receptor response-inhibiting rate of the test substance. In the measurement, multiple independent experiments were performed in duplicate, and the average of each experiment was used.

[1] = Sensory test of ability to reduce the odor of 2,6-dimethylpyrazine on cloth; format: in vivo; settings: 0.5 μL flavoring agent on 0.5 g cloth containing 1% 2,6-dimethylpyrazine; four panelists; FIG. 3
Protocol: The abilities to reduce an odor of a pyrazine derivative by the antagonist substances identified in Example 3 were confirmed by a sensory test.
A flavoring agent (0.5 μL) was added to cloth (0.5 g) containing 2,6-dimethylpyrazine (1%), and the odor thereof was evaluated by comparing the strength of odor of 2,6-dimethylpyrazine of the cloth not applied with flavor by the flavoring agent. The sensory evaluation test was performed by four panelists. In the evaluation, a case where a strong odor of 2,6-dimethylpyrazine was smelled was rated as 1, and a case where the odor of 2,6-dimethylpyrazine was not smelled at all was rated as 5.

Structure (SMILES)	inhibition at 300 µM (olfactory receptor OR5K1) [%]	odor of 2,6-dimethylpyrazine inhibited (sensory evaluation, rating 1 strong odor to 5 not smelled) [1]
O=C1CCCCCCCCCCCC(=O)OCCO1 [1,4-dioxacycloheptadecane-5,17-dione]	≥ 40	–
CC(=O)C1=C(C)C2CC3(C1)C(C)CCC3C2(C)C (stereo not shown) [1-(2,3,4,7,8,8a-hexahydro-3,6,8,8-tetramethyl-1H-3a,7-methanoazulen-5-yl)-ethanone]	≥ 50	–
CC=CC(=O)C1=C(C)C=CCC1(C)C [1-(2,6,6-trimethyl-1,3-cyclohexadien-1-yl)-2-buten-1-one]	≥ 40	inhibited
CCC(O)COC1CCCCC1C(C)(C)C (stereo not shown) [1-(2-tert-butylcyclohexyloxy)-2-butanol]	≥ 75	inhibited
C=CCCC(=O)C1=CCCC(C)(C)C1 [1-(5,5-dimethyl-1-cyclohexen-1-yl)-4-penten-1-one]	≥ 40	inhibited
CC(=O)c1cc2c(cc1C)C(C)(C)C(C)CC2(C)C (stereo not shown) [1-(5,6,7,8-tetrahydro-3,5,5,6,8,8-hexamethyl-2-naphthalenyl)-ethanone]	≥ 75	–
C=CCc1ccc(O)c(OC)c1 [1-allyl-3-methoxy-4-hydroxybenzene]	≥ 40	–
CC1=CC(C)C(C=O)CC1 (stereo not shown) [2,4-dimethyl-3-cyclohexene-1-carboxyaldehyde]	–	inhibited
CC(C=O)C1CCCCC1 (stereo not shown) [2-cyclohexylpropanal]	≥ 50	–
CCC(=CCC1CC=C(C)C1(C)C)CO (stereo not shown) [2-ethyl-4-(2,2,3-trimethyl-3-cyclopenten-1-yl)-2-buten-1-ol]	≥ 75	–
CC=Cc1ccc(OCc2ccccc2)c(OC)c1 [2-methoxy-1-(phenylmethoxy)-4-(1-propenyl)-benzene]	≥ 50	–
CC(=CCC1CC=C(C)C1(C)C)CO (stereo not shown) [2-methyl-4-(2,2,3-trimethyl-3-cyclopenten-1-yl)-2-buten-1-ol]	≥ 50	inhibited
CCCCCC1=C(C)CCC1=O [2-pentyl-3-methyl-2-cyclopenten-1-one]	≥ 40	–
CC(C=O)c1ccccc1 (stereo not shown) [2-phenylpropionaldehyde]	≥ 50	–
CC(C)CCCC(C)CCO (stereo not shown) [3,7-dimethyl-1-octanol]	≥ 50	–
CC(C)=CCCC(C)=CC=O [3,7-dimethyl-2,6-octadienal]	≥ 75	–
CC(C)=CCCC(C)CC=O (stereo not shown) [3,7-dimethyl-6-octenal]	≥ 50	–
C=C(OCC)C1C(C)(C)CC(=O)CC1(C)C [4-(1-ethoxyvinyl)-3,3,5,5-tetramethylcyclohexanone]	≥ 50	–
CC(=O)C=CC1=C(C)CCCC1(C)C [4-(2,6,6-trimethyl-1-cyclohexen-1-yl)-3-buten-2-one]	–	inhibited
CCC=C(C)C(O)CCCCC (stereo not shown) [4-methyl-3-decen-5-ol]	≥ 75	inhibited
CC(=O)c1c(C)c([N+](=O)[O-])c(C(C)(C)C)c([N+](=O)[O-])c1C [4-tert-butyl-2,6-dimethyl-3,5-dinitroacetophenone]	≥ 40	–

Structure (SMILES)	inhibition at 300 µM (olfactory receptor OR5K1) [%]	odor of 2,6-dimethylpyrazine inhibited (sensory evaluation, rating 1 strong odor to 5 not smelled) [1]
Cc1ccc(C(C)C)c(O)c1 [5-methyl-2-(1-methylethyl)-phenol]	≥ 75	–
CC(C)=CCCC(C)CCOCC=O (stereo not shown) [6,10-dimethyl-3-oxa-9-undecenal]	≥ 40	–
CC(=O)c1cc(C(C)(C)C)cc2c1C=CC2(C)C [6-tert-butyl-1,1-dimethylinden-4-yl methyl ketone]	≥ 40	–
CC(=O)C1(C)CC2=C(CCCC2(C)C)CC1C (stereo not shown) [7-acetyl-1,2,3,4,5,6,7,8-octahydro-1,1,6,7-tetramethyl-naphthalene]	≥ 75	–
CC1C/C=C/CCCCCCCCCC(=O)C1 (stereo not shown) [(5E)-3-methylcyclopenta-5-decen-1-one]	–	inhibited
CC(C)=CCC/C(C)=C/CO [(E)-3,7-dimethyl-2,6-octadien-1-ol]	≥ 40	inhibited
CC(=O)O[C@]1(C)CC[C@@]23C[C@@H]1C(C)(C)[C@@H]2CC[C@H]3C [cedryl acetate]	≥ 50	–
O=CC=Cc1ccccc1 [cinnamaldehyde]	≥ 50	–
CC(C)[C@H]1CC[C@@H](CO)CC1 [cis-4-isopropylcyclohexylmethanol]	≥ 40	–
CC1(C)CCCC2(C)C1CCC1(C)OCCC12 (stereo not shown) [dodecahydro-3a,6,6,9a-tetramethylnaphtho[2,1-b]furan]	≥ 50	–
CCOC(=O)[C@]12CCC[C@H]1[C@@H]1CC[C@H]2C1 [ethyl-(3aα,4α,7α,3aα)-octahydro-4,7-methano-3aH-indene-3a-carboxylate]	–	inhibited
CCOCOC1CCCCCCCCCCC1 [formaldehyde cyclododecyl ethyl acetal]	≥ 50	–
CCCCCCOC(=O)c1ccccc1O [hexyl salicylate]	≥ 40	–
O=C(OCCc1ccccc1)c1ccccc1O [phenylethyl salicylate]	≥ 75	–
CCCCCCC(C=O)=Cc1ccccc1 [α-hexylcinnamic aldehyde]	–	inhibited
CC(=O)/C(C)=C/C1C(C)=CCCC1(C)C (stereo not drawn) [α-isomethyl ionone]	–	inhibited
CC(C=O)Cc1ccc2c(c1)OCO2 (stereo not drawn) [α-methyl-3,4-methylenedioxyhydrocinnamic aldehyde]	–	inhibited
CC(C=O)Cc1ccc(C(C)C)cc1 (stereo not drawn) [α-methyl-4-(1-methylethyl)-benzenepropanal]	≥ 75	–
CC(C=O)Cc1ccc(C(C)(C)C)cc1 (stereo not drawn) [α-methyl-β-(p-tert-butylphenyl)-propionaldehyde]	≥ 50	inhibited
CC(=O)c1ccc2ccccc2c1 [β-methyl naphthyl ketone]	–	inhibited
CCCCCCCC1CCC(=O)O1 (stereo not shown) [γ-undecalactone]	–	inhibited

Source: patent US10159655B2, “Agent for inhibiting odor of pyrazine derivatives” (Kao Corporation, priority 2012, dated 2018)
